The values that follow come from publication PMC4535335 (Bioorganic & medicinal chemistry letters, 2014).

The conditions of series [1]: cited from earlier work.
For series [2] the following is noted: cited from earlier work. This is another data set of the same source.
The conditions of series [3]: plasma protein binding; cited from earlier work.
Series [4] is described as follows: intrinsic clearance in human hepatic microsomes fortified with NADPH. In kind it is in vitro ADME.
The nature of series [5]: intrinsic clearance in rat hepatic microsomes fortified with NADPH. Format: in vitro ADME. The note with it: OCD3 for OCH3.

Structures are written as SMILES.

As to `O=C(c1ccc(F)c(F)c1)N1CCN2C(=O)c3ccccc3[C@@]12c1ccc(Cl)cc1` [ML375], the rat brain fu in series [1] is 0.003. In addition, in series [2], the “brain:plasma Kp” value is given as 1.8. Further, the human fu in series [3] is on record as 0.013.

For `[2H]C([2H])([2H])Oc1ccc([C@@]23c4ccccc4C(=O)N2CCN3C(=O)c2cc(F)c(F)c(F)c2)cc1C` [VU6001005], the “reduction of human in vitro intrinsic clearance relative to VU6000181” value in series [4] (OCD3 for OCH3) was ~ 5 fold. The same molecule had an intrinsic clearance (CLint scaled) in series [4] (human, microsomes) of 72.9 mL/min/kg. In addition, the “improvement to rat intrinsic clearance relative to VU6000181” value in series [5] is listed as “negligible improvement”.

As a reminder, the CLint scaled is the rate of metabolic loss divided by the concentration. Lower therefore signals slow turnover.
